Key:
Mus musculus = assay: In vivo inhibition of KDR in po dosed mouse assessed as estradiol-induced uterine edema; format: functional
Aurora kinase B [1] = molecular target: T1, Aurora kinase B (Homo sapiens, UniProt Q96GD4); conditions: NCI-H1229
[2] = molecular target: T2, Vascular endothelial growth factor receptor 2 (Homo sapiens, UniProt P35968); assay: Inhibition of KDR using 1 mM ATP by HTRF assay
Aurora kinase B [3] = molecular target: T1, Aurora kinase B; assay: Inhibition of Aurora B using 1 mM ATP by HTRF assay
[4] = molecular target: T2, Vascular endothelial growth factor receptor 2; assay: Inhibition of human KDR phosphorylation expressed in mouse NIH3T3 cells; format: cell-based
[5] = Clearance in CD1 (ICR) mouse at 3 mg/kg, iv; format: ADME, organism-based; set-up: dose 3 mg/kg, route intravenous; conditions: in vivo
[6] = Half life in CD1 (ICR) mouse at 3 mg/kg, iv; format: ADME, organism-based; set-up: dose 3 mg/kg, route intravenous; conditions: in vivo
[7] = Volume of distribution in CD1 (ICR) mouse at 3 mg/kg, iv; format: ADME, organism-based; set-up: dose 3 mg/kg, route intravenous; conditions: in vivo
[8] = AUC in CD1 (ICR) mouse at 10 mg/kg, po; format: ADME, organism-based; set-up: dose 10 mg/kg, route oral; conditions: plasma
HT-1080 = assay: Antitumor activity against human HT1080 cells xenografted in mouse assessed as tumor growth inhibition at 10 mg/kg, po qd; format: functional; conditions: read-out: GI
[9] = Oral bioavailability in CD1 (ICR) mouse at 10 mg/kg; format: ADME, organism-based; conditions: in vivo
Cytochrome P450 3A4 [10] = molecular target: T3, Cytochrome P450 3A4 (Homo sapiens, UniProt P08684); assay: Inhibition of CYP3A4 preincubated for 15 mins; format: ADME
Cytochrome P450 3A4 [11] = molecular target: T3, Cytochrome P450 3A4; assay: Inhibition of CYP3A4; format: ADME

T1 sequence (Q96GD4 whole entry): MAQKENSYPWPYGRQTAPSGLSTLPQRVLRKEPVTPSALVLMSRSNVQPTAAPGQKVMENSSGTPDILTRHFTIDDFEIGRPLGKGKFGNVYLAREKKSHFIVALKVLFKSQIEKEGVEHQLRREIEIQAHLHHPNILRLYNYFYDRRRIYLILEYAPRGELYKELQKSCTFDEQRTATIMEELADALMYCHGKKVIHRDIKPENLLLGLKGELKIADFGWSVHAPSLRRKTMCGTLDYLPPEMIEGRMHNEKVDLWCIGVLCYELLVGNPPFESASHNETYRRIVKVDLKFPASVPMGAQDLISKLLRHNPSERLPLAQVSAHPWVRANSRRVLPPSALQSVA
T2 sequence (P35968 whole entry): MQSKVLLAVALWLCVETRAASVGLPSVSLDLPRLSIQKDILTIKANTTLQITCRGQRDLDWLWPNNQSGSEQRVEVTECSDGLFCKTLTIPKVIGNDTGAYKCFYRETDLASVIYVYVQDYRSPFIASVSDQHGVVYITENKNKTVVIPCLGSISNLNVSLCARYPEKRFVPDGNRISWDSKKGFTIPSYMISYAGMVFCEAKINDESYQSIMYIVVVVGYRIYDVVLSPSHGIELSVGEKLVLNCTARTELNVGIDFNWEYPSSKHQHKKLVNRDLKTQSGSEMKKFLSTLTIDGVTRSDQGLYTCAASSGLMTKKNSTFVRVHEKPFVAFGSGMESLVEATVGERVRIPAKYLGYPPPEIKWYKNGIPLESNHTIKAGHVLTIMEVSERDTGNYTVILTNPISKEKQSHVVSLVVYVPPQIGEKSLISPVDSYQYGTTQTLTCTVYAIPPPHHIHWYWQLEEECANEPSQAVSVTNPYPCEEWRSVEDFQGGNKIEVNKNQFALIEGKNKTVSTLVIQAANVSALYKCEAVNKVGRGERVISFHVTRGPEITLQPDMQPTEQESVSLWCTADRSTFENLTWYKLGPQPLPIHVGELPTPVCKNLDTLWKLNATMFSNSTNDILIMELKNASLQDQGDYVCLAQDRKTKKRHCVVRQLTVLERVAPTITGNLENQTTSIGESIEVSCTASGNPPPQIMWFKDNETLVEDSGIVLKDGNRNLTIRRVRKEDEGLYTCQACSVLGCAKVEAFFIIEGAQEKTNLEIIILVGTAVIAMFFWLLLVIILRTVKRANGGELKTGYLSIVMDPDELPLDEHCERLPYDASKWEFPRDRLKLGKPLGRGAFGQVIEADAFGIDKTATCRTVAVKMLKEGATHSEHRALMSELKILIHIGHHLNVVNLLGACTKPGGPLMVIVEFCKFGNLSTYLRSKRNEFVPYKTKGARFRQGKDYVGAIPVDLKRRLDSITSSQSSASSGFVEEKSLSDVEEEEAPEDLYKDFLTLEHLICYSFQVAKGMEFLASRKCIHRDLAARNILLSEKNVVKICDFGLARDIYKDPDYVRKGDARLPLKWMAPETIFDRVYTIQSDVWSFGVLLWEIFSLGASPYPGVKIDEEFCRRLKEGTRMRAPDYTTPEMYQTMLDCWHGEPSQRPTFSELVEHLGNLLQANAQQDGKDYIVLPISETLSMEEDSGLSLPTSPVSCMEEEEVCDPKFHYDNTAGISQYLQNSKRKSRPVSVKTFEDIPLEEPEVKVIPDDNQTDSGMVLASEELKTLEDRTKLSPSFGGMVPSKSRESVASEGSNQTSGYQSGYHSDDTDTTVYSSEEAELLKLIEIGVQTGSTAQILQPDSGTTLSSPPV
T3 sequence (P08684 whole entry): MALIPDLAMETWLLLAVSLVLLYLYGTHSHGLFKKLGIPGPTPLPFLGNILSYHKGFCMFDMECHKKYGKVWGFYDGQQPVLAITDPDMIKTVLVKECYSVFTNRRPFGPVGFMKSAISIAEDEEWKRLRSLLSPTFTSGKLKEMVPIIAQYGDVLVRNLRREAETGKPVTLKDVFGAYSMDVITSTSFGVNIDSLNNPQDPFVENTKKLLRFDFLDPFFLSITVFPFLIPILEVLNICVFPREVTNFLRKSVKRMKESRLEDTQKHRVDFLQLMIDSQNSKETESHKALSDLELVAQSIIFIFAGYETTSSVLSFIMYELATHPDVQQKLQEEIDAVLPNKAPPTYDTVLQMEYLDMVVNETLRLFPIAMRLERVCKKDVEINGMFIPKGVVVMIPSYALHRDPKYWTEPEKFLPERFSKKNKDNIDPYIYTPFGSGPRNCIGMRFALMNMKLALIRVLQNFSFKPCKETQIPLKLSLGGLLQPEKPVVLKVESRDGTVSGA

SMILES	EC15 (Aurora kinase B [1]) [nM]	IC50 [2] [nM]	IC50 (Aurora kinase B [3]) [nM]	ED50 (Mus musculus) [mg/kg]	further results
COc1ccccc1NC(=O)Nc1ccc(-c2csc3c(-c4cnn(C)c4)cnc(N)c23)cc1	> 100	6	52	8	
Cc1cccc(NC(=O)Nc2ccc(-c3csc4c(-c5ccsc5)cnc(N)c34)cc2)c1	> 300	9	179		IC50 [4]: 31 nM
Cc1cccc(NC(=O)Nc2ccc(-c3csc4c(-c5ccccc5)cnc(N)c34)cc2)c1			3280		
CS(=O)(=O)CCn1cc(-c2cnc(N)c3c(-c4ccc(NC(=O)Nc5cccc(F)c5)cc4)csc23)cn1	4	1	11	10	
Cc1cccc(NC(=O)Nc2ccc(-c3csc4c(-c5cc[nH]n5)cnc(N)c34)cc2)c1	161	6	66		IC50 [4]: 3 nM
Cn1cc(-c2cnc(N)c3c(-c4ccc(NC(=O)Nc5ccc(OC(F)(F)F)cc5)cc4)csc23)cn1	12	3	17	2.6	
Cc1cccc(NC(=O)Nc2ccc(-c3csc4c(-c5cn[nH]c5)cnc(N)c34)cc2)c1	31		8		
Nc1ncc(-c2cnn(CCN3CCCCC3)c2)c2scc(-c3ccc(NC(=O)Nc4cccc(F)c4)cc3)c12	< 3	4	8	> 10	
CC(C)CCn1cc(-c2cnc(N)c3c(-c4ccc(NC(=O)Nc5cccc(F)c5)cc4)csc23)cn1		25	529		
CNC(=O)/C=C/c1cnc(N)c2c(-c3ccc(NC(=O)Nc4cccc(C)c4)cc3)csc12	87	6	80		IC50 [4]: 22 nM

Now from value to compound, other results behind:

EC15 (Aurora kinase B [1]) [nM]	IC50 [2] [nM]	IC50 (Aurora kinase B [3]) [nM]	SMILES	ED50 (Mus musculus) [mg/kg]	further results
18	7	70	Cn1cc(-c2cnc(N)c3c(-c4ccc(NC(=O)Nc5cccc(Cl)c5)cc4)csc23)cn1	2	
55			Cc1cccc(NC(=O)Nc2ccc(-c3csc4c(-c5cnn(C)c5)cnc(N)c34)cc2)c1	1	clearance [5]: 18.3 mL/min/kg; half-life [6]: 90 min; Vd [7]: 2.3 L/kg; AUC [8]: 5640 ng·h/mL; inhibition in vivo at 10 mg/kg (HT-1080): > 70%; bioavailability [9]: 59%
2	2	8	Cc1ccccc1NC(=O)Nc1ccc(-c2csc3c(-c4cnn(C)c4)cnc(N)c23)cc1	3.5	
9	3	6	Cn1cc(-c2cnc(N)c3c(-c4ccc(NC(=O)Nc5ccccc5)cc4)csc23)cn1	0.3	
6		9	Cn1cc(-c2cnc(N)c3c(-c4ccc(NC(=O)Nc5cccc(F)c5)cc4)csc23)cn1	0.3	IC50 (Cytochrome P450 3A4 [10]): 2700 nM; IC50 (Cytochrome P450 3A4 [11]): 7.9 µM; clearance [5]: 3.33 mL/min/kg; half-life [6]: 216 min; Vd [7]: 0.9 L/kg; AUC [8]: 44000 ng·h/mL; inhibition in vivo at 10 mg/kg (HT-1080): > 70%; bioavailability [9]: 78%

Reference: ChEMBL document CHEMBL2021801, “Thienopyridine ureas as dual inhibitors of the VEGF and Aurora kinase families” (Bioorg Med Chem Lett, 2012)
